Measurements taken from patent US20040023264A1, “Method for determining the peptide hormone activities or the steroid hormone activities of a material or substance mixture” (priority 2000, published 2004).

Experiments:
[1] = molecular target: T1, glucocorticoid receptor (Rattus norvegicus, UniProt P06536); test: Glucocorticoid activity bioassay, CC1 cells cotransfected with GRE2-TATA-Luc and glucocorticoid receptor expression plasmid; type: cell-based; set-up: expressed in transfected cells; host or cells: CC1 cells (permanent rat liver cell line), transiently cotransfected with pSTC-rGR and GRE2-TATA-Luc; settings: for corticosteroid (glucocorticoid) activity of corticosterone:BSA derivatives / glucocorticoid activity (luciferase induction): CC1 cells; for corticosteroid (glucocorticoid) activity of corticosterone:BSA derivatives: each 200 nM, various induction times; for glucocorticoid activity (luciferase induction): different concentrations, induction time 24 h
T1 sequence (P06536 1-795): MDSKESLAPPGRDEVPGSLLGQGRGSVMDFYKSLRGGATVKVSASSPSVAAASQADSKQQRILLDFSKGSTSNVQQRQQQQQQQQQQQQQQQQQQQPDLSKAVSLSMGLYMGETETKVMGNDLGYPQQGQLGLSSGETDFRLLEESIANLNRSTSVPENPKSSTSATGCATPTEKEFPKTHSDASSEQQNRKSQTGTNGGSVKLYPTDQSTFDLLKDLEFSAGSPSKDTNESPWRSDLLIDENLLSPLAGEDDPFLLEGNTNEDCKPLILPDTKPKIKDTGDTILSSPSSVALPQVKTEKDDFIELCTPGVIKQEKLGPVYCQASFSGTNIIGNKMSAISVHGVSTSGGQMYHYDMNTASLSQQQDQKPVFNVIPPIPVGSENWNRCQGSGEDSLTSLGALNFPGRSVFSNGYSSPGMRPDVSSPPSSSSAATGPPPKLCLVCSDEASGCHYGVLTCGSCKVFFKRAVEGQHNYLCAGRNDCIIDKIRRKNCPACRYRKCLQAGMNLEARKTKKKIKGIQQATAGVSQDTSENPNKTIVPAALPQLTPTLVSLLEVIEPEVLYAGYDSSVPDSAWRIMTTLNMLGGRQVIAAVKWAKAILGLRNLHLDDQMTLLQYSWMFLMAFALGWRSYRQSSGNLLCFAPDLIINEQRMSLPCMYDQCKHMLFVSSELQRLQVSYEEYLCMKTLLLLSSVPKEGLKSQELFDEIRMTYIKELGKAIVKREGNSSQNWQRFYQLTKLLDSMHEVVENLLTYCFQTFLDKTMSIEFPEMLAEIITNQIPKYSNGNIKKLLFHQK
Method: These cell lines contain endogenous glucocorticoid receptors. Here, steroid concentration—in this case corticosterone concentration—determines the extent of glucocorticoid activity. […] Induction time: 24 h (see also example 12).
(§1) Thus, the following examples always concern transit ntly cotransfected CC1or MH 3924 cell.

[2] = molecular target: T1, glucocorticoid receptor
Method: These cell lines contain endogenous glucocorticoid receptors. Here, steroid concentration—in this case corticosterone concentration—determines the extent of glucocorticoid activity. […]
as §1
Determination was carried out as in example 7, however, with MH 3924 cells.

[3] = system: androgen receptors (AR); test: Androgen induced luciferase activity in transfected human genital skin fibroblasts (GSF); type: cell-based; settings: mibolerone 2 nM, 24 h incubation; three Luc constructs; strength depends on origin of fibroblasts
Excerpt: FIG. 1: Androgen induced luciferase activity in human genital skin fibroblasts (GSF) in culture transfected with three different luciferase gen constructs of different androgen sensitivity (“Lu ”): PRE2-Tk-Luc, MMTV-Luc, GRE2-TATA-Luc
The only steroid hormone receptors present in GSF are androgen receptors (AR). Mibolerone, which is used in this experiment, is a synthetic androgen with anabolic effectiveness. […] Obviously, GE2-TATA-Luc is the most sensitive reporter gene construct of the ones used here (for comparison, see also example 10 with a MMTV promotor reporter gene construct as well as FIG. 10).

[4] = molecular target: androgen receptor (Homo sapiens, UniProt P10275); settings: HeLa cells, induction time 24 h
Excerpt: Transfection method in this experiment was the DOTAP method (Boehringer, Mannheim, Germany).
This androgen receptor free cell line was transiently cotransfected with GRE2-TATA-Luc and a recombinant androgen receptor expression plasmid.

[5] = molecular target: T1, glucocorticoid receptor; settings: CC1 cells

androgen receptor, sequence (P10275 whole entry): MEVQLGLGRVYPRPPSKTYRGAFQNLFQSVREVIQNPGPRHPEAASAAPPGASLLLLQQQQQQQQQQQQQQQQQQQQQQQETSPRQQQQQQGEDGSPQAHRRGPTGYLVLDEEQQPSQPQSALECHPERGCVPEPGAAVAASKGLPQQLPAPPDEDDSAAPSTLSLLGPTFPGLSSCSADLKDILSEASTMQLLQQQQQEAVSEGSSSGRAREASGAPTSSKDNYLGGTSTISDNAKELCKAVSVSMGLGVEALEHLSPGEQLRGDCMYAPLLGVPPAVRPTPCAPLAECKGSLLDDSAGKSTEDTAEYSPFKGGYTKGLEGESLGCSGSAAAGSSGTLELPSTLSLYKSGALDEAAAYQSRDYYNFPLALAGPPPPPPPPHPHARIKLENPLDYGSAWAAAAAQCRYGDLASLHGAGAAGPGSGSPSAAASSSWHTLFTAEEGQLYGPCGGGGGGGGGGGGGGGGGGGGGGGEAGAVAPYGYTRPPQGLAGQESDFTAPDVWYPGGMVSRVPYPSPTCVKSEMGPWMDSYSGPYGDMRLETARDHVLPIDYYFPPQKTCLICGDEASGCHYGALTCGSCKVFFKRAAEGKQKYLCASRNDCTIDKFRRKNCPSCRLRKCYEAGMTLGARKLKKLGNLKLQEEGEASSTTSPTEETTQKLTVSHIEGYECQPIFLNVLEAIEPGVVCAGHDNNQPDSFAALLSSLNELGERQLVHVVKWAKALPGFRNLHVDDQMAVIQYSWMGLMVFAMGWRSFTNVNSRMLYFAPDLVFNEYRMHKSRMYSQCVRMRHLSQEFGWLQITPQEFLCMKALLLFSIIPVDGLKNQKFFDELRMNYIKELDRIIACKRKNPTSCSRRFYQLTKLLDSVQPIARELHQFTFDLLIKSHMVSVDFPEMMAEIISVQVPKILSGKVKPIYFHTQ

Molecule: 3-CMO-corticosterone:BSA [3:BSA]
- corticosteroid (glucocorticoid) activity of corticosterone:BSA derivatives [1]: weak

Molecule: 21-hemisuccinat-corticosterone:BSA
- corticosteroid (glucocorticoid) activity of corticosterone:BSA derivatives [1]: strong
- luciferase induction by corticosterone derivative bound to BSA (glucocorticoid activity) ([1]; cotransfected CC1 cells): luciferase is induced
- concentration at which luciferase induction is easily measurable ([2]; MH 3924 cells, short term induction of 10 to 30 min (FIG. 4a)): ≤ 50 nM

Molecule: C[C@@H]1CC2=CC(=O)CC[C@@H]2[C@H]2CC[C@@]3(C)[C@@H](CC[C@]3(C)O)[C@@H]21 [Mibolerone]
- luciferase activity induced by androgen [3]: luciferase activity of varying strength

Molecule: C[C@]1(O)CC[C@H]2[C@@H]3CCC4=CC(=O)CCC4=C3C=C[C@@]21C [R1881, methyltrienolone]
- concentration at which hormone activity (anabolic potency) can already be detected [4]: 10 pM

Molecule: CC#C[C@]1(O)CC[C@H]2[C@@H]3CCC4=CC(=O)CCC4=C3[C@@H](c3ccc(N(C)C)cc3)C[C@@]21C [RU 38486, mifepristone]
- blocking of luciferase inducing effect of corticosterone and 21-hemisuccinat-corticosterone:BSA (glucocorticoid antagonism) [5]: extensively blocked

Molecule: C[C@]12CCC(=O)C=C1CC[C@@H]1[C@@H]2CC[C@@]2(C)[C@H]1CC[C@]2(O)C(=O)CO [cortexolone, 17α-, 21-dihydroxy-progesterone]
- glucocorticoid activity (luciferase induction) [1]: significant glucocorticoid activity

Molecule: C[C@]12C[C@H](O)[C@H]3[C@@H](CCC4=CC(=O)CC[C@@]43C)[C@@H]1CC[C@@H]2C(=O)CO [corticosterone]
- glucocorticoid activity (luciferase induction) [1]: very active
- response of MH 3924 cells compared with response of CC1 cells ([2]; as in example 7 (24 h)): distinctly more sensitive
